Test results reported in PMC10047683, “A Novel Family of Lysosomotropic Tetracyclic Compounds for Treating Leukemia” (Cancers, 2023).

How the values were obtained:
[1] = system: panel of 7 AML cell lines; assay: Dose-response viability curves, whole panel; assay type: cell-based; conditions: mean of the 7 AML cell lines; 48 h
Description: (§1) First, 2 × 10^5 (72 h assays in cell lines (Supplementary File S1)), 3 × 10^5 (48 h assays in cell lines) or 7.5 × 10^5 (primary AML, healthy donor buffy coats) cells per mL were cultured in 96-well plates, and all drugs were added at the indicated concentrations. In α-tocopherol experiments, cells were treated with growing concentrations of α-tocopherol and EDK drugs for 48 h. In the NAC and 3MA experiments, treatment was simultaneous with EDK compounds. In glucose deprivation experiments, cells were cultivated with a standard medium (glucose high, 2 g/L), a standard medium without glucose, or a standard medium with galactose (2 g/L) and without glucose. Cell viability was measured via 7-AAD (eBioscience) exclusion and Hoechst33342 (Sigma-Aldrich, St. Louis, MO, USA) positivity staining via flow cytometry, and the cell count was obtained through volume. In the experiments with the primary cells, analyses were performed inside the blast population as detected via blast gates (CD45^low SSC^int). For solid tumor cell lines, viability was analyzed using CellTiter-Glo® Luminescent Cell Viability Assay (Promega).

HEK-293T = assay: Pancancer cell line panel viability (nontumor line); assay type: cell-based; conditions: HEK-293T (nontumor); 10 µM; 48 h
Description: as §1
(§2) AML cell lines and cell cultures
(§3) Cell lines HL-60 (ACC-3), KG-1 (ACC-14), MonoMac-1 (ACC-252), Kasumi-1 […]
(§4) obtained from DSMZ. Cell lines THP-1 (TIB-202TM), MCF-7 (HTB-22™), MDA- […]
(§5) 3216™) and HS-5 (CRL-11882™) were obtained from ATCC. HBL-2 cell line was kindly supplied by Dr. Pérez-Galán (IDIBAPS, Barcelona, Spain). SKM-1 and U937 were kindly provided by Dr. Marcus Buschbeck (IJC, Badalona, Spain). All cell lines were cultured in the conditions indicated by the providers, and were tested for mycoplasma on a monthly basis.
(§6) All drugs were resuspended in H2O (Thermo Fischer Scientific), DMSO (Sigma-Aldrich) or ethanol (VWR) according to manufacturer’s specifications. - tocopherol, 3-methyladenine (3MA), arsenic trioxide (ATO) and N-acetyl-L-cysteine (NAC) were purchased from Sigma Aldrich. Chloroquine diphosphate was purchased from Merck. Etoposide and ionomycin were purchased from […]
(§7) (1 picture or pasted object on this page, not shown here)

HS-5 = assay: as above; assay type: cell-based; conditions: HS-5 (nontumor); 10 µM; 48 h
Description: as §1, §2, §3, §4, §5, §6, §7

Jurkat = assay: Pancancer cell line panel viability; assay type: cell-based; conditions: 10 µM, 48 h
Description: as §1, §2, §3, §4, §5, §6, §7

ACHN = assay: Pancancer cell line panel viability; assay type: cell-based; conditions: 10 µM, 48 h
Description: as §1, §2, §3, §4, §5, §6, §7

MDA-MB-435 = assay: Pancancer cell line panel viability; assay type: cell-based; conditions: 10 µM, 48 h
Description: as §1, §2, §3, §4, §5, §6, §7

DU-145 = assay: Pancancer cell line panel viability; assay type: cell-based; conditions: 10 µM, 48 h
Description: as §1, §2, §3, §4, §5, §6, §7

JJN3 = assay: Pancancer cell line panel viability; assay type: cell-based; conditions: 10 µM, 48 h
Description: as §1, §2, §3, §4, §5, §6, §7

U266 = assay: Pancancer cell line panel viability; assay type: cell-based; conditions: 10 µM, 48 h
Description: as §1, §2, §3, §4, §5, §6, §7

MCF-7 = assay: Pancancer cell line panel viability; assay type: cell-based; conditions: 10 µM, 48 h
Description: as §1, §2, §3, §4, §5, §6, §7

A549 = assay: Pancancer cell line panel viability; assay type: cell-based; conditions: 10 µM, 48 h
Description: as §1, §2, §3, §4, §5, §6, §7

OVCAR = assay: Pancancer cell line panel viability; assay type: cell-based; conditions: 10 µM, 48 h
Description: as §1, §2, §3, §4, §5, §6, §7

AML patient samples = assay: Combination with ATO, viability by flow cytometry and Bliss synergy; assay type: cell-based, human; conditions: for Effectivity (%Viability reduction): 48 h
Description: as §1
(§8) Synergy was calculated using SynergyFinder 2.0 with the Bliss reference model.

[2] = system: healthy donor blood samples (BC: buffy coat); assay: as above; assay type: cell-based, human; conditions: 48 h
Description: as §1, §8

primary AML samples = assay: Cytotoxicity in primary AML samples (flow cytometry, blast gate); assay type: cell-based, human
Text: Primary AML samples were obtained at diagnosis from patients diagnosed at Hospital Clínic of Barcelona (Spain) and Hospital Germans Trias i Pujol (Badalona, Spain). AML diagnosis, classification, and risk stratification were based on the latest revised WHO criteria (Supplementary Table S1). Clinical characteristics of AML patients are summarized in Supplementary Table S1. Mononuclear cells (MNCs) were isolated with Ficoll density gradient centrifugation (GE Healthcare, Chicago, IL, USA). All patients provided their written informed consent in accordance with the Declaration of Helsinki, and the study was approved by the corresponding ethics committees. Mature blood MNCs were isolated from healthy donors’ buffy coats provided by Banc de Sang i Teixits (BSiT, Barcelona, Spain). Umbilical-cord blood was provided by BSiT, and MNCs were depleted for lineage marker-positive cells using magnetic separation with the Human Lineage Cell Depletion kit (Miltenyi Biotec, North Rhine-Westphalia, Germany) following the manufacturer’s recommendations.
as §1

For `CN1CCC(=C2c3ccccc3-c3c2sc2ccccc32)CC1` [EDK-87], the EC50 [1] was 7.7 ± 0.7 µM, the # Live cells refer to control (HEK-293T) was 79% and the # Live cells refer to control (HS-5) was 71%. It also gave a # Live cells refer to control (Jurkat) of 51%, a # Live cells refer to control (ACHN) of 70% and a # Live cells refer to control (MDA-MB-435) of 11%. For the same compound, the # Live cells refer to control (DU-145) was 57%, the # Live cells refer to control (JJN3) was 55% and the # Live cells refer to control (U266) was 70%. It also gave a # Live cells refer to control (MCF-7) of 32%, a # Live cells refer to control (A549) of 74% and a # Live cells refer to control (OVCAR) of 59%. For the same compound, the “synergy with ATO” value (AML patient samples; AML cell lines and three primary AML samples) was “highly synergistic”, the “Effectivity (%Viability reduction)” value (AML patient samples; AML#63, single agent 5 µM) was -5% and the “Effectivity (%Viability reduction)” value (AML patient samples; AML#63, single agent 10 µM) was -19%. The “Effectivity (%Viability reduction)” value (AML patient samples; AML#98, single agent 1 µM) was -9%, the “Effectivity (%Viability reduction)” value (AML patient samples; AML#98, single agent 5 µM) was 0% and the “Effectivity (%Viability reduction)” value (AML patient samples; AML#98, single agent 10 µM) was 8%. For the same compound, the “Effectivity (%Viability reduction)” value (AML patient samples; AML#133, single agent 1 µM) was -9%, the “Effectivity (%Viability reduction)” value (AML patient samples; AML#133, single agent 5 µM) was 3% and the “Effectivity (%Viability reduction)” value (AML patient samples; AML#133, single agent 10 µM) was 19%. The “Effectivity (%Viability reduction)” value ([2]; BC#1, single agent 1 µM) was 0%, the “Effectivity (%Viability reduction)” value ([2]; BC#1, single agent 5 µM) was 4% and the “Effectivity (%Viability reduction)” value ([2]; BC#1, single agent 10 µM) was 19%. For the same compound, the “Effectivity (%Viability reduction)” value ([2]; BC#2, single agent 1 µM) was 0%, the “Effectivity (%Viability reduction)” value ([2]; BC#2, single agent 5 µM) was 4% and the “Effectivity (%Viability reduction)” value ([2]; BC#2, single agent 10 µM) was 14%. For the same compound, the “reduced the numbers of primary leukemic cells” value (primary AML samples; 14 primary AML samples, 72 h, EDK-87 10 and 25 µM, EDK-88 5 and 10 µM assayed) was 43% ± 8.5, the # Live cells refer to control (primary AML samples; AML sample #61, 5 µM, 72 h) was 112% and the # Live cells refer to control (primary AML samples; AML sample #61, 10 µM, 72 h) was 107%. It also gave a # Live cells refer to control (primary AML samples; AML sample #61, 25 µM, 72 h) of 47%, a # Live cells refer to control (primary AML samples; AML sample #63, 5 µM, 72 h) of 71% and a # Live cells refer to control (primary AML samples; AML sample #63, 10 µM, 72 h) of 37%. The # Live cells refer to control (primary AML samples; AML sample #63, 25 µM, 72 h) was 13%, the # Live cells refer to control (primary AML samples; AML sample #98, 5 µM, 72 h) was 59% and the # Live cells refer to control (primary AML samples; AML sample #98, 10 µM, 72 h) was 26%. For the same compound, the # Live cells refer to control (primary AML samples; AML sample #98, 25 µM, 72 h) was 5%, the # Live cells refer to control (primary AML samples; AML sample #130, 5 µM, 72 h) was 97% and the # Live cells refer to control (primary AML samples; AML sample #130, 10 µM, 72 h) was 97%. It also gave a # Live cells refer to control (primary AML samples; AML sample #130, 25 µM, 72 h) of 35%, a # Live cells refer to control (primary AML samples; AML sample #132, 5 µM, 72 h) of 74% and a # Live cells refer to control (primary AML samples; AML sample #132, 10 µM, 72 h) of 60%. It also gave a # Live cells refer to control (primary AML samples; AML sample #133, 5 µM, 72 h) of 60%, a # Live cells refer to control (primary AML samples; AML sample #133, 10 µM, 72 h) of 19% and a # Live cells refer to control (primary AML samples; AML sample #134, 5 µM, 72 h) of 97%. It also gave a # Live cells refer to control (primary AML samples; AML sample #134, 10 µM, 72 h) of 89%, a # Live cells refer to control (primary AML samples; AML sample #135, 5 µM, 72 h) of 94% and a # Live cells refer to control (primary AML samples; AML sample #135, 10 µM, 72 h) of 80%. It also gave a # Live cells refer to control (primary AML samples; AML sample #135, 25 µM, 72 h) of 14%, a # Live cells refer to control (primary AML samples; AML sample #136, 5 µM, 72 h) of 97% and a # Live cells refer to control (primary AML samples; AML sample #136, 10 µM, 72 h) of 51%. The # Live cells refer to control (primary AML samples; AML sample #136, 25 µM, 72 h) was 2%, the # Live cells refer to control (primary AML samples; AML sample #141, 5 µM, 72 h) was 77% and the # Live cells refer to control (primary AML samples; AML sample #141, 10 µM, 72 h) was 52%. The # Live cells refer to control (primary AML samples; AML sample #147, 5 µM, 72 h) was 17%, the # Live cells refer to control (primary AML samples; AML sample #148, 5 µM, 72 h) was 47% and the # Live cells refer to control (primary AML samples; AML sample #148, 10 µM, 72 h) was 5%. For the same compound, the # Live cells refer to control (primary AML samples; AML sample #152, 5 µM, 72 h) was 83%, the # Live cells refer to control (primary AML samples; AML sample #152, 10 µM, 72 h) was 56% and the # Live cells refer to control (primary AML samples; AML sample #153, 5 µM, 72 h) was 78%. The # Live cells refer to control (primary AML samples; AML sample #153, 10 µM, 72 h) was 65% and the “therapeutic window (viability)” value (primary AML samples; primary AML vs healthy-donor blood cells) was 2.4.
